Measurements as given in ChEMBL document CHEMBL1201862, “PubChem BioAssay data set” (2004).
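Tested at 5 concentrations; 48 h exposure; 96-well plates; endpoints linearly interpolated, else capped at highest concentration. GI50 is the concentration that inhibits growth by half.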 Activity calls are given as the source filed them. Cut-off read from the data, not from the text of the source: active = GI50 up to about 1.1 µM and inactive = higher.

Tests used:
Experiment in all cases: NCI tumour cell line growth inhibition, 48 h
[1] = tested on: A498
[2] = tested on: A549
[3] = tested on: CCRF-CEM
[4] = tested on: COLO 205
[5] = tested on: DLD-1
[6] = tested on: DMS-114
[7] = tested on: DMS-273
[8] = tested on: EKVX
[9] = tested on: HCC 2998
[10] = tested on: HCT-116
[11] = tested on: HCT-15
[12] = tested on: HL-60
[13] = tested on: HOP-18
[14] = tested on: HOP-62
[15] = tested on: HT-29
[16] = tested on: IGROV-1
[17] = tested on: K562
[18] = tested on: KM-20L2
[19] = tested on: KM12
[20] = tested on: LOX IMVI
[21] = tested on: M19-MEL
[22] = tested on: MCF7
[23] = tested on: MOLT-4
[24] = tested on: Malme-3M
[25] = tested on: NCI-H226
[26] = tested on: NCI-H23
[27] = tested on: NCI-H460
[28] = tested on: NCI-H522
[29] = tested on: NCI/ADR-RES
[30] = tested on: OVCAR-3
[31] = tested on: OVCAR-4
[32] = tested on: OVCAR-5
[33] = tested on: OVCAR-8
[34] = tested on: RPMI-8226
[35] = tested on: RXF 393
[36] = tested on: SF-268
[37] = tested on: SF-295
[38] = tested on: SF-539
[39] = tested on: SK-MEL-28
[40] = tested on: SK-MEL-2
[41] = tested on: SK-MEL-5
[42] = tested on: SK-OV-3
[43] = tested on: SN12C
[44] = tested on: SNB-19
[45] = tested on: SNB-75
[46] = tested on: SNB-78
[47] = tested on: SW-620
[48] = tested on: U-251
[49] = tested on: UACC-257
[50] = tested on: UACC-62
[51] = tested on: UO-31
[52] = tested on: XF498
[53] = tested on: 786-0
[54] = tested on: ACHN
[55] = tested on: BT-549
[56] = tested on: CAKI-1
[57] = tested on: DU-145
[58] = tested on: HOP-92
[59] = tested on: Hs-578T
[60] = tested on: LXFL 529
[61] = tested on: M14
[62] = tested on: MDA-MB-231
[63] = tested on: MDA-MB-435
[64] = tested on: MDA-N
[65] = tested on: PC-3
[66] = tested on: SR
[67] = tested on: T47D
[68] = tested on: TK-10

Measured: GI50

CC(C)(C)OC(=O)NC1CCC(C(C)(C)C)CC1 (configuration not stated)
inactive: [1] > 100 µM | [2] 43.8 µM | [3] 36.1 µM | [4] > 65.5 µM | [5] > 100 µM | [6] 34 µM | [7] > 51.2 µM | [8] > 64.1 µM | [9] > 87.1 µM | [10] 43.1 µM | [12] 15.2 µM | [13] > 82.8 µM | [14] > 91 µM | [15] 22.3 µM | [16] > 100 µM | [17] 51.1 µM | [18] 37.9 µM | [19] > 81.7 µM | [20] 40.9 µM | [21] 31.3 µM | [22] 44.5 µM | [23] 23.9 µM | [24] 33.2 µM | [25] 26.4 µM | [26] > 83 µM | [27] > 77.3 µM | [28] 85.1 µM | [29] 99.1 µM | [30] 58.6 µM | [31] > 74.3 µM | [32] > 100 µM | [33] > 89.7 µM | [34] 27.3 µM | [35] 31.3 µM | [36] > 100 µM | [37] 26.5 µM | [38] > 100 µM | [39] > 100 µM | [40] 23.3 µM | [41] 27.7 µM | [42] > 100 µM | [43] > 77.8 µM | [44] 95.7 µM | [45] 40.7 µM | [46] > 100 µM | [47] > 64.3 µM | [48] 38.4 µM | [49] 19.5 µM | [50] 37.4 µM | [51] 59.2 µM | [52] > 52.2 µM
> 79.6 µM: [11]

Cn1c2ccccc2n2c3nc4ccccc4nc3c(C#N)c12
9.29 µM: [11]
inactive: [53] 93.8 µM | [1] 6.44 µM | [2] > 100 µM | [54] 75.3 µM | [55] > 100 µM | [56] > 100 µM | [3] 60 µM | [4] 70 µM | [6] > 100 µM | [7] > 100 µM | [57] > 100 µM | [8] > 100 µM | [9] 9.68 µM | [10] 53.8 µM | [12] > 87.9 µM | [13] > 100 µM | [14] 10 µM | [58] > 100 µM | [15] 14.3 µM | [59] 56 µM | [16] > 100 µM | [17] 65.3 µM | [19] 9.44 µM | [20] > 100 µM | [60] > 100 µM | [61] > 100 µM | [22] > 75 µM | [62] > 97.1 µM | [63] > 85.7 µM | [64] > 100 µM | [23] 57.8 µM | [24] > 81.8 µM | [25] > 100 µM | [26] > 96.8 µM | [27] 5.48 µM | [28] 5.9 µM | [29] > 100 µM | [30] > 100 µM | [31] > 71.8 µM | [32] 10 µM | [33] 74.1 µM | [65] > 96.8 µM | [34] 71 µM | [35] > 42.3 µM | [36] 81.3 µM | [37] 88.3 µM | [38] 62.8 µM | [39] > 100 µM | [40] > 4.65 µM | [41] 4.4 µM | [42] 99.5 µM | [43] > 94.2 µM | [44] > 100 µM | [45] > 30.8 µM | [66] 49.3 µM | [47] 74.8 µM | [67] 21.4 µM | [68] > 10 µM | [48] 74 µM | [49] > 82.6 µM | [50] 65.5 µM | [51] 77.3 µM | [52] > 100 µM
active: [5] < 0.01 µM | [21] < 0.01 µM

CO[C@H]1ON=C(c2c(C)cc(C)cc2C)[C@@H]1C1(c2ccccc2)ON=C(c2c(C)cc(C)cc2C)O1 (some centres not stated)
inactive: [2] > 100 µM | [54] > 100 µM | [3] > 100 µM | [4] > 100 µM | [5] > 100 µM | [7] > 100 µM | [8] > 100 µM | [9] > 100 µM | [10] > 100 µM | [12] 46.3 µM | [13] > 100 µM | [58] > 100 µM | [16] > 100 µM | [17] > 100 µM | [18] > 100 µM | [19] > 100 µM | [20] > 100 µM | [60] > 100 µM | [21] > 100 µM | [23] 87.1 µM | [24] > 100 µM | [26] > 100 µM | [27] > 100 µM | [28] > 100 µM | [32] > 100 µM | [33] > 100 µM | [34] 37.8 µM | [35] > 100 µM | [36] > 100 µM | [37] > 100 µM | [38] > 100 µM | [39] > 100 µM | [40] > 100 µM | [42] > 100 µM | [43] > 100 µM | [44] > 100 µM | [46] > 100 µM | [66] > 100 µM | [47] > 100 µM | [68] > 100 µM | [48] > 100 µM | [49] > 100 µM | [50] > 100 µM | [51] > 100 µM
> 10 µM: [11]

CCCCn1c(-c2ccccc2)cs/c1=N\NC(=O)Cn1c(C)nc2ccccc21
inactive: [53] > 100 µM | [1] > 100 µM | [2] 81.1 µM | [54] 75.9 µM | [56] 62.5 µM | [3] 17.9 µM | [4] 17.1 µM | [5] > 100 µM | [7] 76 µM | [8] 47.1 µM | [9] 89.1 µM | [10] 97.3 µM | [12] 14.4 µM | [13] > 100 µM | [14] > 100 µM | [15] > 100 µM | [16] > 100 µM | [17] 14.5 µM | [18] 84.9 µM | [19] 70.8 µM | [20] 32.6 µM | [60] 25.1 µM | [61] 53.2 µM | [21] 30.4 µM | [23] 16.3 µM | [24] 35.7 µM | [25] 35.8 µM | [26] 8.75 µM | [27] 76.7 µM | [28] 30.2 µM | [30] 40.6 µM | [31] 6.12 µM | [32] > 100 µM | [33] > 100 µM | [34] 14.7 µM | [35] 34.3 µM | [37] 33.5 µM | [38] > 100 µM | [40] > 100 µM | [41] 20.4 µM | [42] > 100 µM | [43] 19.8 µM | [44] > 100 µM | [45] 60.1 µM | [46] > 100 µM | [66] 11.5 µM | [47] > 100 µM | [68] > 100 µM | [48] 96.2 µM | [49] 34.5 µM | [50] 58.6 µM | [51] 55.6 µM | [52] 31.9 µM
97.9 µM: [11]

O=C(O)CCN(CCCCN(CCC(=O)O)CCC(=O)O)CCC(=O)O
> 100 µM: [11]
inactive: [53] > 100 µM | [1] > 100 µM | [2] > 100 µM | [54] > 100 µM | [56] > 100 µM | [3] > 100 µM | [4] > 100 µM | [5] > 100 µM | [6] > 100 µM | [7] > 100 µM | [8] > 100 µM | [9] > 100 µM | [10] > 100 µM | [12] > 100 µM | [13] > 100 µM | [14] > 100 µM | [58] > 100 µM | [15] > 100 µM | [16] > 100 µM | [17] > 100 µM | [19] > 100 µM | [20] > 100 µM | [60] > 100 µM | [61] > 100 µM | [21] > 100 µM | [23] > 100 µM | [24] > 100 µM | [26] > 100 µM | [27] > 100 µM | [28] > 100 µM | [30] > 100 µM | [31] > 100 µM | [32] > 100 µM | [33] > 100 µM | [34] > 100 µM | [36] > 100 µM | [37] > 100 µM | [38] > 100 µM | [39] > 100 µM | [40] > 100 µM | [41] > 100 µM | [42] > 100 µM | [43] > 100 µM | [45] > 100 µM | [47] > 100 µM | [68] > 100 µM | [48] > 100 µM | [50] > 100 µM | [52] > 100 µM
